Source: the supplement of paper PMC11451515

Tested on: SEM cells
Assay: cell viability relative to DMSO control; higher = less cytotoxic
Settings: 48 h
Procedure, shortened: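 Cells were incubated for 48 h at 37°C before CellTiter-Glo One luminescence was read. The cells were NOMO1 or SEM (500 cells/well) or P12-Ichikawa (1000 cells/well) leukemia cells, adapted for at least four passages in each medium and seeded in 1536-well plates (5 μl). Dosing used library compounds in DMSO applied by pin over 11 threefold points, 47 μM to 0.79 nM. Viability is the per-plate percentage of DMSO wells, with cell-free wells as background.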

[1] = HPLM + 10% dialyzed FBS, 0.000781 µM
[2] = HPLM + 10% dialyzed FBS, 0.00234 µM
[3] = HPLM + 10% dialyzed FBS, 0.00702 µM
[4] = HPLM + 10% dialyzed FBS, 0.0211 µM
[5] = HPLM + 10% dialyzed FBS, 0.0632 µM
[6] = HPLM + 10% dialyzed FBS, 0.19 µM
[7] = HPLM + 10% dialyzed FBS, 0.569 µM
[8] = HPLM + 10% dialyzed FBS, 1.71 µM
[9] = HPLM + 10% dialyzed FBS, 5.12 µM
[10] = HPLM + 10% dialyzed FBS, 15.4 µM
[11] = HPLM + 10% dialyzed FBS, 46.1 µM
[12] = RPMI 5 mM glucose + 10% FBS, 0.000781 µM
[13] = RPMI 5 mM glucose + 10% FBS, 0.00234 µM
[14] = RPMI 5 mM glucose + 10% FBS, 0.00702 µM
[15] = RPMI 5 mM glucose + 10% FBS, 0.0211 µM
[16] = RPMI 5 mM glucose + 10% FBS, 0.0632 µM
[17] = RPMI 5 mM glucose + 10% FBS, 0.19 µM
[18] = RPMI 5 mM glucose + 10% FBS, 0.569 µM
[19] = RPMI 5 mM glucose + 10% FBS, 1.71 µM
[20] = RPMI 5 mM glucose + 10% FBS, 5.12 µM
[21] = RPMI 5 mM glucose + 10% FBS, 15.4 µM
[22] = RPMI 5 mM glucose + 10% FBS, 46.1 µM
[23] = RPMI 5 mM glucose + 10% dialyzed FBS, 0.000781 µM
[24] = RPMI 5 mM glucose + 10% dialyzed FBS, 0.00234 µM
[25] = RPMI 5 mM glucose + 10% dialyzed FBS, 0.00702 µM
[26] = RPMI 5 mM glucose + 10% dialyzed FBS, 0.0211 µM
[27] = RPMI 5 mM glucose + 10% dialyzed FBS, 0.0632 µM
[28] = RPMI 5 mM glucose + 10% dialyzed FBS, 0.19 µM
[29] = RPMI 5 mM glucose + 10% dialyzed FBS, 0.569 µM
[30] = RPMI 5 mM glucose + 10% dialyzed FBS, 1.71 µM
[31] = RPMI 5 mM glucose + 10% dialyzed FBS, 5.12 µM
[32] = RPMI 5 mM glucose + 10% dialyzed FBS, 15.4 µM
[33] = RPMI 5 mM glucose + 10% dialyzed FBS, 46.1 µM

Row | SMILES | cell viability [1] [%] | cell viability [2] [%] | cell viability [3] [%] | cell viability [4] [%] | cell viability [5] [%] | cell viability [6] [%] | cell viability [7] [%] | cell viability [8] [%] | cell viability [9] [%] | cell viability [10] [%] | cell viability [11] [%] | cell viability [12] [%] | cell viability [13] [%] | cell viability [14] [%] | cell viability [15] [%] | cell viability [16] [%] | cell viability [17] [%] | cell viability [18] [%] | cell viability [19] [%] | cell viability [20] [%] | cell viability [21] [%] | cell viability [22] [%] | cell viability [23] [%] | cell viability [24] [%] | cell viability [25] [%] | cell viability [26] [%] | cell viability [27] [%] | cell viability [28] [%] | cell viability [29] [%] | cell viability [30] [%] | cell viability [31] [%] | cell viability [32] [%] | cell viability [33] [%]
1 | CN(C)CC[C@H](CSc1ccccc1)Nc1ccc([S+](=O)([O-])NC(=O)c2ccc(N3CCN(Cc4ccccc4-c4ccc(Cl)cc4)CC3)cc2)cc1[N+](=O)[O-] | 116 | 126 | 111 | 82.7 | 64.8 | 23.7 | 10.8 | 8.48 | 6.85 | 6.25 | 3.88 | 103 | 118 | 110 | 102 | 73.8 | 27.7 | 11.1 | 6.52 | 4.95 | 3.98 | 2.62 | 128 | 91.3 | 99.7 | 81.7 | 57.4 | 19.7 | 11.3 | 8.96 | 5.67 | 4.98 | 3.36
2 | CCN1\C=C(C(O)=O)/C(=O)C2=C1C=C(N3CCN(C)CC3)C(=C2)F | 107 | 112 | 98.6 | 117 | 104 | 115 | 129 | 105 | 109 | 110 | 96.7 | 108 | 112 | 128 | 116 | 107 | 120 | 105 | 117 | 108 | 107 | 103 | 107 | 114 | 108 | 107 | 95.6 | 108 | 106 | 83.6 | 106 | 109 | 91.8
3 | O=C(NCCO[N+](=O)[O-])c1cccnc1 | 99.3 | 64.4 | 107 | 114 | 105 | 97.1 | 101 | 98.7 | 108 | 105 | 115 | 100 | 92.8 | 112 | 111 | 112 | 114 | 96.1 | 102 | 112 | 121 | 108 | 107 | 89.6 | 112 | 109 | 97.6 | 111 | 96.6 | 105 | 110 | 111 | 110
4 | C[N+](C)(C)CC(=O)O.[Cl-] | 56.8 | 83.2 | 80.5 | 73.7 | 79.7 | 85.5 | 88.3 | 26.3 | 93.1 | 93.4 | 89.1 | 76.8 | 80.8 | 73 | 77.4 | 81.8 | 89.2 | 96 | 16.6 | 86.8 | 90.2 | 93.4 | 81.5 | 95 | 90.9 | 87.8 | 81.7 | 89 | 100 | 21 | 91.8 | 88.8 | 74.2
5 | OC(CCN1CCCCC1)(C2CC\3CC2\C=C3)C4=CC=CC=C4 (stereo not given) | 102 | 110 | 113 | 97.7 | 123 | 120 | 121 | 94.8 | 118 | 129 | 126 | 94.9 | 126 | 115 | 91 | 122 | 119 | 116 | 107 | 123 | 134 | 121 | 104 | 104 | 113 | 70.2 | 129 | 113 | 127 | 120 | 132 | 136 | 131
6 | O=[S+]([O-])(CCSSCC[S+](=O)([O-])[O][Na])[O][Na] | 78.9 | 95.5 | 101 | 65.2 | 120 | 104 | 102 | 103 | 107 | 108 | 118 | 117 | 97.5 | 116 | 73.7 | 115 | 112 | 119 | 103 | 124 | 112 | 111 | 103 | 99.9 | 113 | 72.8 | 134 | 120 | 126 | 120 | 121 | 126 | 139
7 | CCCNCC(O)COc1ccccc1C(=O)CCc1ccccc1 (stereo not given) | 86.5 | 86.5 | 117 | 93.3 | 98.7 | 54.2 | 105 | 112 | 117 | 108 | 99.6 | 98.8 | 95.1 | 98.1 | 104 | 107 | 60.4 | 125 | 109 | 124 | 116 | 97.2 | 101 | 85.1 | 109 | 90.5 | 102 | 43.6 | 118 | 104 | 116 | 115 | 110
8 | Cc1cc(SCc2sc(-c3ccc(C(F)(F)F)cc3)nc2C)ccc1OCC(=O)O | 98.4 | 102 | 98.3 | 113 | 102 | 109 | 113 | 105 | 99.3 | 48.9 | 98.4 | 94.3 | 101 | 89.4 | 102 | 102 | 105 | 100 | 104 | 114 | 57.5 | 93.5 | 99.9 | 101 | 96.1 | 97 | 109 | 92.5 | 102 | 109 | 99.4 | 48.3 | 97.9
9 | O=C(O)CCNc1cc(N2CCc3ccccc3CC2)nc(-c2ccccn2)n1 | 123 | 120 | 130 | 127 | 139 | 144 | 129 | 133 | 121 | 129 | 139 | 105 | 124 | 123 | 118 | 121 | 103 | 103 | 95.9 | 99.2 | 115 | 76.9 | 112 | 116 | 127 | 110 | 116 | 120 | 130 | 112 | 101 | 120 | 99.6
10 | Cn1cc(-c2cnn3c(N)c(Br)c([C@@H]4CCCNC4)nc23)cn1 | 75.1 | 93.2 | 94.8 | 86.4 | 93.6 | 93.6 | 71.3 | 29.1 | 19.4 | 16.7 | 8.44 | 87.4 | 99.9 | 101 | 94.4 | 91.8 | 93.6 | 96.6 | 63 | 22.4 | 16.3 | 7.88 | 76.8 | 90.9 | 84.6 | 88.9 | 83.6 | 94.2 | 69.5 | 31.3 | 13.2 | 12.8 | 7.35
11 | COCCCOc1ccnc(C[S+]([O-])c2nc3ccccc3[nH]2)c1C (stereo not given) | 97 | 102 | 110 | 115 | 107 | 113 | 127 | 109 | 102 | 109 | 94.3 | 72.3 | 72.1 | 71.3 | 82.6 | 73.1 | 79 | 78.6 | 76.7 | 65.6 | 81.3 | 75.2 | 97.9 | 110 | 91.3 | 107 | 98.8 | 103 | 109 | 100 | 115 | 108 | 108
12 | C[C@H]1C[C@H]2[C@@H]3CCC4=CC(=O)C=C[C@]4(C)[C@H]3C(=O)C[C@]2(C)[C@@]1(O)C(=O)CO | 77 | 81.5 | 77.8 | 88.9 | 70.6 | 99.8 | 96.5 | 92.7 | 88.7 | 81.9 | 9.17 | 82.3 | 81.3 | 90.3 | 78.8 | 72.5 | 87 | 92.5 | 91.7 | 71.3 | 58.5 | 7.21 | 93.2 | 85.2 | 83.4 | 91.1 | 77.5 | 101 | 93.6 | 97.6 | 85.4 | 74.4 | 7.99
13 | O=C(O)c1ccc(-c2c[nH]c3ncc(-c4ccccc4)cc23)cc1C1CCCC1 | 98 | 103 | 113 | 113 | 118 | 125 | 99 | 108 | 82.4 | 63.5 | 66.6 | 111 | 110 | 111 | 109 | 121 | 113 | 101 | 91.8 | 69.8 | 47.1 | 43.2 | 114 | 116 | 119 | 138 | 114 | 115 | 123 | 101 | 65.3 | 44.1 | 35.3
14 | CO[C@H]1/C=C/O[C@@]2(C)Oc3c(C)c(O)c4c(O)c(c(/C=N/N5CCN(C)CC5)c(O)c4c3C2=O)NC(=O)/C(C)=C\C=C\[C@H](C)[C@H](O)[C@@H](C)[C@@H](O)[C@@H](C)[C@H](OC(C)=O)[C@@H]1C | 107 | 121 | 130 | 126 | 119 | 121 | 119 | 113 | 102 | 96.1 | 67 | 62.7 | 84.8 | 87.1 | 82.4 | 77.1 | 78.6 | 75.4 | 74.9 | 55 | 56 | 23.5 | 108 | 104 | 104 | 103 | 109 | 108 | 123 | 111 | 102 | 90.4 | 66.5
15 | CN1CC/C(CC1)=C3\c4ccccc4CC(=O)c2sccc23 | 107 | 110 | 127 | 121 | 119 | 122 | 127 | 133 | 142 | 123 | 110 | 115 | 124 | 123 | 114 | 127 | 125 | 126 | 116 | 145 | 129 | 103 | 117 | 114 | 126 | 104 | 119 | 129 | 135 | 108 | 128 | 106 | 113
